Source: ChEMBL document CHEMBL1135309, “Tryptophanyl phosphoramidates as prodrugs of synadenol and its E-isomer: synthesis and biological activity” (2002)

Experiments:
[1] = Ratio of antiviral activity of HSV-1 to the ratio of cytotoxicity of Vero (EC50/CC50) against cytopathic effect inhibition assay in CEM cells; 28/>100; type: functional
[2] = Ratio of antiviral activity of HSV-2 to the ratio of cytotoxicity of HFF (EC50/CC50) against cytopathic effect inhibition assay; 80/433; type: functional
[3] = Ratio of antiviral activity of HSV-1 to the ratio of cytotoxicity of BSC-1 (EC50/CC50) against KB cells; 26/78; type: functional
[4] = Ratio of antiviral activity of HSV-1 to the ratio of cytotoxicity of HFF (EC50/CC50) against cytopathic effect inhibition assay; >92/433; type: functional
[5] = Ratio of antiviral activity of VZV to the ratio of cytotoxicity of HFF (EC50/CC50) against cytopathic effect inhibition assay; 2.5/368; type: functional
[6] = Ratio of antiviral activity of HSV-2 to the ratio of cytotoxicity of Vero (EC50/CC50) against cytopathic effect inhibition assay in CEM cells; 59/>100; type: functional
[7] = Antiviral activity against HCMV (Towne) in HFF cells by plaque reduction assay
[8] = Antiviral activity against HCMV (AD 169) in HFF cells against cytopathic effect inhibition assay; 1.0/303
[9] = Antiviral activity against HIV-1 in MT-2 cells (EC50) against cytopathic effect inhibition assay; 0.75/32
[10] = Antiviral activity against HBV in 2.2.15 cells (EC50) in HBV-DNA inhibition assay against CEM cells; 2/>100
[11] = Antiviral activity against EBV in Daudi cells (EC50) against viral capsid antigen immunofluorescence assay (VCA-IF); 3.2/368
HCT-15 [12] = assay: Antitumor activity against human HCT15 to multiple drug-resistant human colon tumor at 500 ug/disk in disk diffusion assay; type: functional
[13] = Ratio of antiviral activity of HSV-1 to the ratio of cytotoxicity of Vero (EC50/CC50) against cytopathic effect inhibition assay in CEM cells; >1/<10; type: functional
[14] = Ratio of antiviral activity of HSV-2 to the ratio of cytotoxicity of HFF (EC50/CC50) against cytopathic effect inhibition assay; 1.1/18; type: functional
[15] = Ratio of antiviral activity of HSV-1 to the ratio of cytotoxicity of BSC-1 (EC50/CC50) against KB cells; 2.5/0.5; type: functional
[16] = Ratio of antiviral activity of HSV-1 to the ratio of cytotoxicity of HFF (EC50/CC50) against cytopathic effect inhibition assay; <0.07/18; type: functional
[17] = Ratio of antiviral activity of VZV to the ratio of cytotoxicity of HFF (EC50/CC50) against cytopathic effect inhibition assay; 7.6/101; type: functional
[18] = Ratio of antiviral activity of HBV to the ratio of cytotoxicity of 2.2.15 (EC50/CC50) in HBV-DNA inhibition assay against CEM cells; 0.01/0.3; type: functional, CCRF-CEM
[19] = Antiviral activity against HCMV (Towne) in HFF cells by plaque reduction assay; remark: listed apart in the source
[20] = Antiviral activity against HCMV (AD 169) in HFF cells (EC50) against cytopathic effect inhibition assay
[21] = Antiviral activity against HIV-1 in MT-2 cells (EC50) against cytopathic effect inhibition assay; 0.003/0.24
[22] = Antiviral activity against EBV in Daudi cells (EC50) against viral capsid antigen immunofluorescence assay (VCA-IF); 1.0/>108
[23] = Antitumor activity against normal cells (fibroblasts) at 500 ug/disk in disk diffusion assay; Value ranges from 0-100; type: functional
HCT-15 [24] = assay: Antitumor activity against human HCT15 to multiple drug-resistant human colon tumor at 500 ug/disk in disk diffusion assay; Value ranges from 300-400; type: functional
L1210 = assay: Antitumor activity against leukemia L1210 at 500 ug/disk in disk diffusion assay; type: functional, Mus musculus
[25] = Ratio of antiviral activity of HSV-1 to the ratio of cytotoxicity of Vero (EC50/CC50) against cytopathic effect inhibition assay in CEM cells; 31/91; type: functional
[26] = Ratio of antiviral activity of HSV-2 to the ratio of cytotoxicity of HFF (EC50/CC50) against cytopathic effect inhibition assay; >184/>184; type: functional
[27] = Ratio of antiviral activity of HIV-1to the ratio of cytotoxicity of MT-2 (EC50/CC50) against cytopathic effect inhibition assay; 1/10; type: functional
[28] = Ratio of antiviral activity of HSV-1 to the ratio of cytotoxicity of BSC-1 (EC50/CC50) against KB cells; 15/>100; type: functional
[29] = Ratio of antiviral activity of HSV-1 to the ratio of cytotoxicity of HFF (EC50/CC50) against cytopathic effect inhibition assay; >184/>184; type: functional
[30] = Ratio of antiviral activity of HSV-2 to the ratio of cytotoxicity of Vero (EC50/CC50) against cytopathic effect inhibition assay in CEM cells; 40/91; type: functional
[31] = Ratio of antiviral activity of VZV to the ratio of cytotoxicity of HFF (EC50/CC50) against cytopathic effect inhibition assay; 5.0/111; type: functional
[32] = Antiviral activity of HCMV (Towne)in HFF cells by plaque reduction assay
[33] = Antiviral activity against HBV in 2.2.15 cells in HBV-DNA inhibition assay
[34] = Antiviral activity against HCMV (AD 169) in HFF cells assessed by cytopathic effect inhibition assay; 5.2/90
[35] = Antiviral activity against EBV in Daudi cells against viral capsid antigen immunofluorescence assay (VCA-IF)

Nc1ncnc2c1ncn2/C=C1/CC1CO (stereo unspecified)
Ratio [1]: 28 | Ratio [2]: 80 | Ratio [3]: 26 | Ratio [4]: >92 | Ratio [5]: 2.5 | Ratio [6]: 59 | EC50 [7]: 2100 nM | EC50 [8]: 1000 nM | EC50 [9]: 750 nM | EC50 [10]: 2000 nM | EC50 [11]: 3200 nM

COC(=O)C(C)NP(=O)(OCC1C/C1=C/n1cnc2c(N)ncnc21)Oc1ccccc1 (stereo unspecified)
Activity (HCT-15 [12]): 200 ug disk-1 | Ratio [13]: >1 | Ratio [14]: 1.1 | Ratio [15]: 2.5 | Ratio [16]: <0.07 | Ratio [17]: 7.6 | Ratio [18]: 0.01 | EC50 [19]: 140 nM | EC50 [20]: 1300 nM | EC50 [21]: 3 nM | EC50 [22]: 1000 nM

COC(=O)C(Cc1c[nH]c2ccccc12)NP(=O)(O)OCC1C/C1=C/n1cnc2c(N)ncnc21 (stereo unspecified)
Activity [23]: 0 zone units | Activity (HCT-15 [24]): 300 zone units | Activity (L1210): 0 zone units | Ratio [25]: 31 | Ratio [26]: >184 | Ratio [27]: 1 | Ratio [28]: 15 | Ratio [29]: >184 | Ratio [30]: 40 | Ratio [31]: 5 | EC50 [32]: 1500 nM | EC50 [33]: 490 nM | EC50 [34]: 5200 nM | EC50 [35]: > 18000 nM
